This is an account of results in publication PMC8286840, “Identifying SARS-CoV-2 antiviral compounds by screening for small molecule inhibitors of Nsp3 papain-like protease” (Biochemical Journal, 2021).

Molecules are shown by their SMILES. Where a name gives a salt, the structure may show the parent alone. Read-outs that look alike come from different tables or passages of the source.

Assay [1] deals with T1, SARS-CoV-2 PLpro (nsp3 1564–1878) (Severe acute respiratory syndrome coronavirus 2, UniProt P0DTD1). As to the kind of experiment: biochemical. More on the design: FRET-quenched peptide (Pro3) cleavage by PLpro, 10 min pre-incubation, slope over 20 min, normalised to no-compound control. Conditions: high concentration screen, read-out: % of control remaining.
The target in assay [2] is T1, SARS-CoV-2 PLpro (nsp3 1564–1878). As to the kind of experiment: biochemical. Details: FRET-quenched peptide (Pro3) cleavage by PLpro, 10 min pre-incubation, slope over 20 min, normalised to no-compound control. Conditions: low concentration screen, read-out: % of control remaining.

As for `CCc1cc(-c2noc(-c3cc(OC)nc(C4CCCC4)c3)n2)cc(C)c1OC[C@@H](O)CO` [Cenerimod], the remaining activity at 3.75 µM in assay [1] (Well no.=7052) was determined as 105%. For the same molecule, the remaining activity at 1.25 µM in assay [2] (Well no.=7052) was 105%.

Take `CCCCOCCOc1ccc(-c2ccc3c(c2)/C=C(/C(=O)Nc2ccc([S@@+]([O-])Cc4cncn4CCC)cc2)CCCN3CC(C)C)cc1` [Cenicriviroc Mesylate]: the remaining activity at 3.75 µM in assay [1] (Well no.=8311) is 99.6%. Besides, the remaining activity at 1.25 µM in assay [2] (Well no.=8311) came out at 99.4%.

Turning to `CCCCOCCOc1ccc(-c2ccc3c(c2)/C=C(/C(=O)Nc2ccc([S@@+]([O-])Cc4cncn4CCC)cc2)CCCN3CC(C)C)cc1` [Cenicriviroc], the remaining activity at 3.75 µM in assay [1] (Well no.=8515) was found to be 105%. In addition, the remaining activity at 1.25 µM in assay [2] (Well no.=8515) was 104%.

For the molecule `CN(C)CCOC(=O)COc1ccc(Cl)cc1` [Centrophenoxine hydrochloride], the remaining activity at 3.75 µM in assay [1] (Well no.=46) stood at 107%. Further, the remaining activity at 1.25 µM in assay [2] (Well no.=46) is 103%.

For the molecule `CC1=C(C(=O)O)N2C(=O)[C@@H](NC(=O)[C@H](N)c3ccccc3)[C@H]2SC1` [Cephalexin hydrate], the remaining activity at 3.75 µM in assay [1] (Well no.=34) is 95.3%. Also, the remaining activity at 1.25 µM in assay [2] (Well no.=34) came to 95.4%.

In the case of `C/C=C(\C)C(=O)N[C@@H](c1ccccc1)[C@@H](O)C(=O)O[C@H]1C[C@@]2(O)[C@@H](OC(=O)c3ccccc3)[C@@H]3[C@]4(OC(C)=O)CO[C@@H]4C[C@H](O)[C@@]3(C)C(=O)[C@H](OC(C)=O)C(=C1C)C2(C)C` [Cephalomannine], in assay [1] (Well no.=5204), the remaining activity at 3.75 µM was 99.1%. In assay [2] (Well no.=5204), the remaining activity at 1.25 µM amounted to 97.2%.

Turning to `CC(=O)OCC1=C(C(=O)O)N2C(=O)[C@@H](NC(=O)Cc3cccs3)[C@H]2SC1` [Cephalothin sodium], the remaining activity at 3.75 µM in assay [1] (Well no.=224) is 96.4%. In addition, the remaining activity at 1.25 µM in assay [2] (Well no.=224) is 93.6%.

Take `CC(=O)OCC1=C(C(=O)O)N2C(=O)[C@@H](NC(=O)CSc3ccncc3)[C@H]2SC1` [Cephapirin sodium]: in assay [1] (Well no.=188), the remaining activity at 3.75 µM came out at 99.7%. For the same molecule, the remaining activity at 1.25 µM in assay [2] (Well no.=188) is 101%.

As to `COc1ccc2cc1Oc1ccc(cc1)C[C@H]1c3c(cc4c(c3Oc3cc5c(cc3OC)CCN(C)[C@@H]5C2)OCO4)CCN1C` [Cepharanthine], in assay [1] (Well no.=3555), the remaining activity at 3.75 µM was 106%. Moreover, the remaining activity at 1.25 µM in assay [2] (Well no.=3555) stood at 102%.

`CC1=C(C(=O)O)N2C(=O)[C@@H](NC(=O)[C@H](N)C3=CCC=CC3)[C@H]2SC1` [Cephradine]: the remaining activity at 3.75 µM in assay [1] (Well no.=236) was 100%. Also, the remaining activity at 1.25 µM in assay [2] (Well no.=236) was 98.9%.

Turning to `COCc1c(C(C)C)nc(C(C)C)c(/C=C/[C@@H](O)C[C@@H](O)CC(=O)O)c1-c1ccc(F)cc1` [Cerivastatin], the remaining activity at 3.75 µM in assay [1] (Well no.=1571) was determined as 93.5%. In assay [2] (Well no.=1571), the remaining activity at 1.25 µM came to 91.1%.

For `C/C=C/C/C=C/CCC(=O)[C@H]1O[C@H]1C(N)=O` [Cerulenin], the remaining activity at 3.75 µM in assay [1] (Well no.=3137) turned out to be 102%. In assay [2] (Well no.=3137), the remaining activity at 1.25 µM turned out to be 93%.

As to `O=C(O)COCCN1CCN(C(c2ccccc2)c2ccc(Cl)cc2)CC1` (stereo not shown) [Cetirizine 2HCl], the remaining activity at 3.75 µM in assay [1] (Well no.=1712) came to 98.8%. In assay [2] (Well no.=1712), the remaining activity at 1.25 µM came to 96.2%.

For the molecule `O=C(O)COCCN1CCN(C(c2ccccc2)c2ccc(Cl)cc2)CC1` (stereo not shown) [Cetirizine (dihydrochloride)], in assay [1] (Well no.=7325), the remaining activity at 3.75 µM amounted to 103%. In assay [2] (Well no.=7325), the remaining activity at 1.25 µM was determined as 104%.

On to `C/C=C(/C)C(=O)O[C@H]1CC[C@@]2(C)[C@@H]3CC[C@H]4[C@]5(O)C[C@H](O)[C@@]6(O)[C@@H](CN7C[C@@H](C)CC[C@H]7[C@@]6(C)O)[C@]5(O)C[C@@]42O[C@]13O` [Cevadine], for which the remaining activity at 3.75 µM in assay [1] (Well no.=3139) came to 102%. Further, the remaining activity at 1.25 µM in assay [2] (Well no.=3139) was 103%.

For `C[C@@H]1O[C@@]2(CS1)CN1CCC2CC1` [Cevimeline (hydrochloride hemihydrate)], the remaining activity at 3.75 µM in assay [1] (Well no.=7571) amounted to 90.9%. Further, the remaining activity at 1.25 µM in assay [2] (Well no.=7571) is 91.5%.

For `CC(CN(C)C)NC(=O)c1cccc2[nH]c(-c3ccncc3)nc12` (stereo not shown) [ChX710], the remaining activity at 3.75 µM in assay [1] (Well no.=8551) was 101%. Also, in assay [2] (Well no.=8551), the remaining activity at 1.25 µM turned out to be 108%.

Consider `CCCCCCCCCCCCCC/C(C(=O)O)=C(\C)C(=O)O` [Chaetomellic acid A], for which the remaining activity at 3.75 µM in assay [1] (Well no.=3141) came out at 96%. For the same molecule, in assay [2] (Well no.=3141), the remaining activity at 1.25 µM turned out to be 95.8%.

As to `CO[C@H]1[C@@H](O)[C@@H](C)O[C@H](O[C@H]2[C@H](Oc3cccc4c(O)c5c(=O)oc6ccc(C)c7c(=O)oc(c34)c5c67)O[C@H](C)[C@H](O)[C@@H]2O)[C@@H]1O` [Chartreusin], the remaining activity at 3.75 µM in assay [1] (Well no.=3508) stood at 98.4%. Besides, the remaining activity at 1.25 µM in assay [2] (Well no.=3508) was found to be 96.6%.

With `COc1ccc2c(c[n+](C)c3c4cc5c(cc4ccc23)OCO5)c1OC` [Chelerythrine chloride], the remaining activity at 3.75 µM amounted to 92.4% in assay [1] (Well no.=28) and 105% in assay [1] (Well no.=2359). The results for the remaining activity at 1.25 µM in assay [2] (Well no.=28) and in assay [2] (Well no.=2359) were 92.2% and 103%, respectively.

In the case of `COc1ccc2c(c[n+](C)c3c4cc5c(cc4ccc23)OCO5)c1OC` [Chelerythrine], the remaining activity at 3.75 µM in assay [1] (Well no.=3533) turned out to be 101%. In addition, the remaining activity at 1.25 µM in assay [2] (Well no.=3533) came out at 102%.

For the molecule `O=C(O)c1cc(=O)cc(C(=O)O)[nH]1` [Chelidamic acid], the remaining activity at 3.75 µM in assay [1] (Well no.=282) turned out to be 90.8%. In addition, the remaining activity at 1.25 µM in assay [2] (Well no.=282) is 86.7%.

Turning to `O=C(O)c1cc(=O)cc(C(=O)O)o1` [Chelidonic acid], the remaining activity at 3.75 µM in assay [1] (Well no.=6682) came to 102%. The remaining activity at 1.25 µM in assay [2] (Well no.=6682) was 102%.

As for `C[C@H](CCC(=O)O)[C@H]1CC[C@H]2[C@@H]3[C@H](O)C[C@@H]4C[C@H](O)CC[C@]4(C)[C@H]3CC[C@]12C` [Chenodeoxycholic Acid], the remaining activity at 3.75 µM in assay [1] (Well no.=6483) turned out to be 101%; in assay [1] (Well no.=8382), 88.2%. For the same molecule, the remaining activity at 1.25 µM in assay [2] (Well no.=6483) is 99.2%; in assay [2] (Well no.=8382), 96.1%.

With `Nc1nc(O)c(C2=C3C(=Nc4ccccc43)C(=O)NCC2)[nH]1` [Chk2 Inhibitor], in assay [1] (Well no.=2389), the remaining activity at 3.75 µM was 103%. Also, the remaining activity at 1.25 µM in assay [2] (Well no.=2389) is 103%.

Regarding `O=C(O)CCCc1ccc(N(CCCl)CCCl)cc1` [Chlorambucil], the results for the remaining activity at 3.75 µM in assay [1] (Well no.=327) and in assay [1] (Well no.=2227) were 98.4% and 98.3%, respectively. Further, the remaining activity at 1.25 µM in assay [2] (Well no.=327) stood at 96.4%; in assay [2] (Well no.=2227), 99.2%.

`O=C(N[C@H](CO)[C@H](O)c1ccc([N+](=O)[O-])cc1)C(Cl)Cl` [Chloramphenicol]: the remaining activity at 3.75 µM in assay [1] (Well no.=2223) stood at 96.6%. Moreover, the remaining activity at 1.25 µM in assay [2] (Well no.=2223) was 96.9%.

Take `CC(=O)O[C@]1(C(C)=O)CC[C@H]2[C@@H]3C=C(Cl)C4=CC(=O)CC[C@]4(C)[C@H]3CC[C@@]21C` [Chlormadinone Acetate]: the remaining activity at 3.75 µM in assay [1] (Well no.=2225) came to 96.7%. The remaining activity at 1.25 µM in assay [2] (Well no.=2225) turned out to be 97.4%.

As for `CN1C(=O)CCS(=O)(=O)C1c1ccc(Cl)cc1` (stereo not shown) [Chlormezanone], the remaining activity at 3.75 µM in assay [1] (Well no.=679) stood at 96.9%. The remaining activity at 1.25 µM in assay [2] (Well no.=679) was found to be 99%.
